Measured values published in patent US8580794B2 (AbbVie Inc., priority 2009, dated 2013).

The compounds below were run against GST-Bc1-2 (Homo sapiens, UniProt P10415) (assay: Time Resolved-Fluorescence Resonance Energy Transfer (TR-FRET) Bcl-2 binding assay with F-Bak peptide probe). Conditions: GST-Bcl-2 1 nM, F-Bak probe 100 nM, Tb-anti-GST 1 nM; '<' = below limit of detection; read-out: TR-FRET Bcl-2 Binding Ki.
Sequence of GST-Bc1-2 (P10415 whole entry): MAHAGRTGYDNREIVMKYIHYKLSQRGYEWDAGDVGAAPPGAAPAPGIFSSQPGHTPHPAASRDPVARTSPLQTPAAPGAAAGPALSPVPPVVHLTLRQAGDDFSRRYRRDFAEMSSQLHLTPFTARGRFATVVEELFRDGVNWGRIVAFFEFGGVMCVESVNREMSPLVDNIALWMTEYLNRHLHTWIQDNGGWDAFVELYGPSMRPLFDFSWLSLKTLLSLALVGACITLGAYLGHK

Row | SMILES | Ki
1 | CC1(C)CCC(CN2CCN(c3ccc(C(=O)NS(=O)(=O)c4ccc(OCCOC5CCOC5)c([N+](=O)[O-])c4)c(Oc4cnc5[nH]ccc5c4)c3)CC2)=C(c2ccc(Cl)cc2)C1 (stereo not shown) [Example 275, 4-(4-{[2-(4-chlorophenyl)-4,4-dimethylcyclohex-1-en-1-yl]methyl}piperazin-1-yl)-N-({3-nitro-4-[2-(tetrahydrofuran-3-yloxy)ethoxy]phenyl}sulfonyl)-2-(1H-pyrrolo[2,3-b]pyridin-5-yloxy)benzamide] | < 0.01 nM
2 | CC1(C)CCC(CN2CCN(c3ccc(C(=O)NS(=O)(=O)c4ccc(NC[C@H]5CC[C@H](C#N)CC5)c([N+](=O)[O-])c4)c(Oc4cnc5[nH]ccc5c4)c3)CC2)=C(c2ccc(Cl)cc2)C1 [Example 276, 4-(4-{[2-(4-chlorophenyl)-4,4-dimethylcyclohex-1-en-1-yl]methyl}piperazin-1-yl)-N-[(4-{[(trans-4-cyanocyclohexyl)methyl]amino}-3-nitrophenyl)sulfonyl]-2-(1H-pyrrolo[2,3-b]pyridin-5-yloxy)benzamide] | < 0.01 nM
3 | CC1(C)CCC(CN2CCN(c3ccc(C(=O)NS(=O)(=O)c4cnc(OCC5(F)CCN(C6COC6)CC5)c(Cl)c4)c(Oc4cnc5[nH]ccc5c4)c3)CC2)=C(c2ccc(Cl)cc2)C1 [Example 277, N-[(5-chloro-6-{[4-fluoro-1-(oxetan-3-yl)piperidin-4-yl]methoxy}pyridin-3-yl)sulfonyl]-4-(4-{[2-(4-chlorophenyl)-4,4-dimethylcyclohex-1-en-1-yl]methyl}piperazin-1-yl)-2-(1H-pyrrolo[2,3-b]pyridin-5-yloxy)benzamide] | < 0.01 nM
4 | CC1(C)CCC(CN2CCN(c3ccc(C(=O)NS(=O)(=O)c4cnc(OCCC5CCOCC5)c(C#N)c4)c(Oc4cnc5[nH]ccc5c4)c3)CC2)=C(c2ccc(Cl)cc2)C1 [Example 278, 4-(4-{[2-(4-chlorophenyl)-4,4-dimethylcyclohex-1-en-1-yl]methyl}piperazin-1-yl)-N-({5-cyano-6-[2-(tetrahydro-2H-pyran-4-yl)ethoxy]pyridin-3-yl}sulfonyl)-2-(1H-pyrrolo[2,3-b]pyridin-5-yloxy)benzamide] | 0.252 nM
5 | CC1(C)CCC(CN2CCN(c3ccc(C(=O)NS(=O)(=O)c4ccc(OCc5ccoc5)c([N+](=O)[O-])c4)c(Oc4cnc5[nH]ccc5c4)c3)CC2)=C(c2ccc(Cl)cc2)C1 [Example 279, 4-(4-{[2-(4-chlorophenyl)-4,4-dimethylcyclohex-1-en-1-yl]methyl}piperazin-1-yl)-N-{[4-(3-furylmethoxy)-3-nitrophenyl]sulfonyl}-2-(1H-pyrrolo[2,3-b]pyridin-5-yloxy)benzamide] | 0.035 nM
6 | CC1(C)CCC(CN2CCN(c3ccc(C(=O)NS(=O)(=O)c4cnc(OC[C@@H]5CCN(C(CF)CF)C5)c(Cl)c4)c(Oc4cnc5[nH]ccc5c4)c3)CC2)=C(c2ccc(Cl)cc2)C1 [Example 280, N-[(5-chloro-6-{[(3R)-1-(1,3-difluoropropan-2-yl)pyrrolidin-3-yl]methoxy}pyridin-3-yl)sulfonyl]-4-(4-{[2-(4-chlorophenyl)-4,4-dimethylcyclohex-1-en-1-yl]methyl}piperazin-1-yl)-2-(1H-pyrrolo[2,3-b]pyridin-5-yloxy)benzamide] | 0.071 nM
7 | CC1(C)CCC(CN2CCN(c3ccc(C(=O)NS(=O)(=O)c4cnc(OC[C@@H]5CCN(CC(F)F)C5)c(Cl)c4)c(Oc4cnc5[nH]ccc5c4)c3)CC2)=C(c2ccc(Cl)cc2)C1 [Example 281, N-[(5-chloro-6-{[(3R)-1-(2,2-difluoroethyl)pyrrolidin-3-yl]methoxy}pyridin-3-yl)sulfonyl]-4-(4-{[2-(4-chlorophenyl)-4,4-dimethylcyclohex-1-en-1-yl]methyl}piperazin-1-yl)-2-(1H-pyrrolo[2,3-b]pyridin-5-yloxy)benzamide] | 0.145 nM
8 | CC1(C)CCC(CN2CCN(c3ccc(C(=O)NS(=O)(=O)c4cnc(OCC5(F)CCN(C(CF)CF)CC5)c(Cl)c4)c(Oc4cnc5[nH]ccc5c4)c3)CC2)=C(c2ccc(Cl)cc2)C1 [Example 282, N-[(5-chloro-6-{[1-(1,3-difluoropropan-2-yl)-4-fluoropiperidin-4-yl]methoxy}pyridin-3-yl)sulfonyl]-4-(4-{[2-(4-chlorophenyl)-4,4-dimethylcyclohex-1-en-1-yl]methyl}piperazin-1-yl)-2-(1H-pyrrolo[2,3-b]pyridin-5-yloxy)benzamide] | < 0.01 nM
9 | CN1CCC(F)(COc2ccc(S(=O)(=O)NC(=O)c3ccc(N4CCN(CC5=C(c6ccc(Cl)cc6)CC(C)(C)CC5)CC4)cc3Oc3cnc4[nH]ccc4c3)cc2Cl)CC1 [Example 283, N-({3-chloro-4-[(4-fluoro-1-methylpiperidin-4-yl)methoxy]phenyl}sulfonyl)-4-(4-{[2-(4-chlorophenyl)-4,4-dimethylcyclohex-1-en-1-yl]methyl}piperazin-1-yl)-2-(1H-pyrrolo[2,3-b]pyridin-5-yloxy)benzamide] | < 0.01 nM
10 | CC1(C)CCC(CN2CCN(c3ccc(C(=O)NS(=O)(=O)c4ccc(OCC5CCOCC5)c(C#N)c4)c(Oc4cnc5[nH]ccc5c4)c3)CC2)=C(c2ccc(Cl)cc2)C1 [Example 284, 4-(4-{[2-(4-chlorophenyl)-4,4-dimethylcyclohex-1-en-1-yl]methyl}piperazin-1-yl)-N-{[3-cyano-4-(tetrahydro-2H-pyran-4-ylmethoxy)phenyl]sulfonyl}-2-(1H-pyrrolo[2,3-b]pyridin-5-yloxy)benzamide] | 0.024 nM
11 | CC1(C)CCC(CN2CCN(c3ccc(C(=O)NS(=O)(=O)c4cnc(OCC5(F)CCN(CC(F)F)CC5)c(Cl)c4)c(Oc4cnc5[nH]ccc5c4)c3)CC2)=C(c2ccc(Cl)cc2)C1 [Example 285, N-[(5-chloro-6-{[1-(2,2-difluoroethyl)-4-fluoropiperidin-4-yl]methoxy}pyridin-3-yl)sulfonyl]-4-(4-{[2-(4-chlorophenyl)-4,4-dimethylcyclohex-1-en-1-yl]methyl}piperazin-1-yl)-2-(1H-pyrrolo[2,3-b]pyridin-5-yloxy)benzamide] | < 0.01 nM
12 | CC1(C)CCC(CN2CCN(c3ccc(C(=O)NS(=O)(=O)c4ccc(OCC5(F)CCOCC5)c(Cl)c4)c(Oc4cnc5[nH]ccc5c4)c3)CC2)=C(c2ccc(Cl)cc2)C1 [Example 286, N-({3-chloro-4-[(4-fluorotetrahydro-2H-pyran-4-yl)methoxy]phenyl}sulfonyl)-4-(4-{[2-(4-chlorophenyl)-4,4-dimethylcyclohex-1-en-1-yl]methyl}piperazin-1-yl)-2-(1H-pyrrolo[2,3-b]pyridin-5-yloxy)benzamide] | < 0.01 nM
13 | CC1(C)CCC(CN2CCN(c3ccc(C(=O)NS(=O)(=O)c4cnc(OCC5CCC(F)(F)CC5)c(Cl)c4)c(Oc4cnc5[nH]ccc5c4)c3)CC2)=C(c2ccc(Cl)cc2)C1 [Example 287, N-({5-chloro-6-[(4,4-difluorocyclohexyl)methoxy]pyridin-3-yl}sulfonyl)-4-(4-{[2-(4-chlorophenyl)-4,4-dimethylcyclohex-1-en-1-yl]methyl}piperazin-1-yl)-2-(1H-pyrrolo[2,3-b]pyridin-5-yloxy)benzamide] | 0.081 nM
14 | CC1(C)CCC(CN2CCN(c3ccc(C(=O)NS(=O)(=O)c4cnc(OCC5(F)CCN(C(CF)CF)CC5)c(C(F)(F)F)c4)c(Oc4cnc5[nH]ccc5c4)c3)CC2)=C(c2ccc(Cl)cc2)C1 [Example 288, 4-(4-{[2-(4-chlorophenyl)-4,4-dimethylcyclohex-1-en-1-yl]methyl}piperazin-1-yl)-N-{[6-{[1-(1,3-difluoropropan-2-yl)-4-fluoropiperidin-4-yl]methoxy}-5-(trifluoromethyl)pyridin-3-yl]sulfonyl}-2-(1H-pyrrolo[2,3-b]pyridin-5-yloxy)benzamide] | 0.251 nM
15 | CC1(C)CCC(CN2CCN(c3ccc(C(=O)NS(=O)(=O)c4cnc(OCCC5CCCO5)c(Cl)c4)c(Oc4cnc5[nH]ccc5c4)c3)CC2)=C(c2ccc(Cl)cc2)C1 (stereo not shown) [Example 289, 4-(4-{[2-(4-chlorophenyl)-4,4-dimethylcyclohex-1-en-1-yl]methyl}piperazin-1-yl)-N-({5-chloro-6-[2-(tetrahydrofuran-2-yl)ethoxy]pyridin-3-yl}sulfonyl)-2-(1H-pyrrolo[2,3-b]pyridin-5-yloxy)benzamide] | 0.09 nM
16 | CC1CN(c2ccc(C(=O)NS(=O)(=O)c3ccc(NCC4CCOCC4)c([N+](=O)[O-])c3)c(Oc3cnc4[nH]ccc4c3)c2)CCN1CC1=C(c2ccc(Cl)cc2)CC(C)(C)CC1 (stereo not shown) [Example 290, 4-(4-{[2-(4-chlorophenyl)-4,4-dimethylcyclohex-1-en-1-yl]methyl}-3-methylpiperazin-1-yl)-N-({3-nitro-4-[(tetrahydro-2H-pyran-4-ylmethyl)amino]phenyl}sulfonyl)-2-(1H-pyrrolo[2,3-b]pyridin-5-yloxy)benzamide] | < 0.01 nM
17 | CC1(C)CCC(CN2CCN(c3ccc(C(=O)NS(=O)(=O)c4ccc(NCCCNC5CC5)c([N+](=O)[O-])c4)c(Oc4cnc5[nH]ccc5c4)c3)CC2)=C(c2ccc(Cl)cc2)C1 [Example 291, 4-(4-{[2-(4-chlorophenyl)-4,4-dimethylcyclohex-1-en-1-yl]methyl}piperazin-1-yl)-N-[(4-{[3-(cyclopropylamino)propyl]amino}-3-nitrophenyl)sulfonyl]-2-(1H-pyrrolo[2,3-b]pyridin-5-yloxy)benzamide] | < 0.01 nM
18 | COCCOc1ncc(S(=O)(=O)NC(=O)c2ccc(N3CCN(CC4=C(c5ccc(Cl)cc5)CC(C)(C)CC4)CC3)cc2Oc2cnc3[nH]ccc3c2)cc1Cl [Example 292, N-{[5-chloro-6-(2-methoxyethoxy)pyridin-3-yl]sulfonyl}-4-(4-{[2-(4-chlorophenyl)-4,4-dimethylcyclohex-1-en-1-yl]methyl}piperazin-1-yl)-2-(1H-pyrrolo[2,3-b]pyridin-5-yloxy)benzamide] | 0.19 nM
19 | CC1(C)CCC(CN2CCN(c3ccc(C(=O)NS(=O)(=O)c4cnc(OCC5CCOCC5)c(F)c4)c(Oc4cnc5[nH]ccc5c4)c3)CC2)=C(c2ccc(Cl)cc2)C1 [Example 293, 4-(4-{[2-(4-chlorophenyl)-4,4-dimethylcyclohex-1-en-1-yl]methyl}piperazin-1-yl)-N-{[5-fluoro-6-(tetrahydro-2H-pyran-4-ylmethoxy)pyridin-3-yl]sulfonyl}-2-(1H-pyrrolo[2,3-b]pyridin-5-yloxy)benzamide] | 0.093 nM
